Source: patent publication US10385056B2, “4-substituted pyrrolo[2,3-d]pyrimidine compound and use thereof” (JIANGSU CAREFREE PHARMACEUTICAL CO., LTD, priority 2014, dated 2019)

How the values were obtained:
[1] = molecular target: JAK1 (Homo sapiens, UniProt P23458); test: Caliper Mobility Shift Assay, kinase inhibition; format: biochemical; settings: ATP by Km value
[2] = molecular target: JAK2 (Homo sapiens, UniProt O60674); test: Caliper Mobility Shift Assay, kinase inhibition; format: biochemical; settings: ATP by Km value
[3] = molecular target: T1, JAK3 (Homo sapiens, UniProt P52333); test: Caliper Mobility Shift Assay, kinase inhibition; format: biochemical; settings: ATP by Km value
T1 sequence (P52333 1-1124): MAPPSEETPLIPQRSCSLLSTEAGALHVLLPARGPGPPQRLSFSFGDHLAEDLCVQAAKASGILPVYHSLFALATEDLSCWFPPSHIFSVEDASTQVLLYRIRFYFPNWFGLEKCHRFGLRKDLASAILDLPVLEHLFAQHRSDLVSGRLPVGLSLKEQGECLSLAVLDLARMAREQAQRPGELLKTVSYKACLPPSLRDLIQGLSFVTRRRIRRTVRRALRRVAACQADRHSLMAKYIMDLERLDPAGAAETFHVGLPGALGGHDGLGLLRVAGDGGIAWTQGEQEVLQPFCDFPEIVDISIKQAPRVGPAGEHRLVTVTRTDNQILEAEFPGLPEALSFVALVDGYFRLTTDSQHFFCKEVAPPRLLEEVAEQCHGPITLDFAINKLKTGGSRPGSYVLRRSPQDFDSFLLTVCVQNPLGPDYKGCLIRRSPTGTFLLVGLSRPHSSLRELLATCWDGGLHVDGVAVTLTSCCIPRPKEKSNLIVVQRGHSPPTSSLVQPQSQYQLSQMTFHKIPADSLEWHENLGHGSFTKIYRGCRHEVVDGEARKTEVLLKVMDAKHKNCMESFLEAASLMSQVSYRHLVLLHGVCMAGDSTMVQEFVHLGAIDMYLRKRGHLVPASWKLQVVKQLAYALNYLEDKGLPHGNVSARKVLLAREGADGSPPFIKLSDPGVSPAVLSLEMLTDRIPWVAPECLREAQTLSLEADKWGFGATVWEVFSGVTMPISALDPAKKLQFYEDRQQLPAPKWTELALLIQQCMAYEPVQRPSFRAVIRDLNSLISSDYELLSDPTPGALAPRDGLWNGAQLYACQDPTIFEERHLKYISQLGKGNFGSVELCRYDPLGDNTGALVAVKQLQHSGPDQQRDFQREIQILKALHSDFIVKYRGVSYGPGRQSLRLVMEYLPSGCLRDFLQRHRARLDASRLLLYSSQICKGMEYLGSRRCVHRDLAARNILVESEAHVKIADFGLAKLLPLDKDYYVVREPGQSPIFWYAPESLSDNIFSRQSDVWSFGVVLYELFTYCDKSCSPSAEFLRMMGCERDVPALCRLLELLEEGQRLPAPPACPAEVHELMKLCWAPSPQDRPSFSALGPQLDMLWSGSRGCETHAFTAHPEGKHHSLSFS

[4] = system: phosphorylated JAK1; test: CTLL-2 cells, IL-2 stimulated, Western blot of phosphorylation; format: cell-based; settings: Mus musculus, starved 6 h with compound, IL-2 150 U/mL 10 min, phosphorylated JAK1 by Western blot, read-out: IC50 g (nM) JAK1
Method: (§1) Incubating for 10 min and collecting cells. Adding cell lysis buffer for cell lysis. Collecting protein to perform WEST-Blot detection, detecting phosphorylated JAK1, the phosphorylation of JAK2 and the phosphorylated STAT5, and obtaining the IC50 value.

[5] = system: phosphorylated STAT5; test: as above; format: cell-based; settings: Mus musculus, starved 6 h with compound, IL-2 150 U/mL 10 min, phosphorylated STAT5 by Western blot, read-out: IC50 g (nM) STAT5
Method: as §1

[6] = system: phosphorylation of JAK2; test: as above; format: cell-based; settings: Mus musculus, starved 6 h with compound, IL-2 150 U/mL 10 min, phosphorylation of JAK2 by Western blot, read-out: IC50 g (nM) JAK2
Method: as §1

[7] = system: Jurkat cells; test: Inhibition of cell proliferation of human lymphocytoma (CCK-8); format: cell-based; settings: 48 h, CCK-8, 450 nm absorption
Method: Spreading the Jurkat cells out for in-vitro cultivation on a 96-well plate with 1500 cells in each well, making the highest concentration of the compound be 50 μM in the cultivation system, and diluting the drug concentration according to 10-time step dilution.

[8] = system: rat with rheumatoid arthritis; test: Collagen-induced rheumatoid arthritis model, arthritis score; format: in vivo; settings: DBA/1J rat, bovine Type II collagen/CFA model, intragastric administration, scored 2 weeks after administration, 1-4 scoring method
Method: For the function of the compound inhibiting rheumatoid arthritis, selecting DBA/1J rat, carrying out subcutaneous injection after complete emulsion of 50 ug of bovine Type II collagen and isometric complete Freund's adjuvant (CFA). Strengthening immunization once 21 days after adequate emulsion of 50 ug of same antigen and incomplete Freund's adjuvant (IFA). Starting observation and recording from the 45th day. Using 1-4 scoring method: 1 score, normal; 2 scores, swelling of one joint; 3 scores, swelling of more than one joint but not all joints; 4 scores, severe swelling or stiffness of the whole claw. Adding scores of all claws to obtain the total score of arthritis in rat. Showing successful model establishment when the total joint score of the rat is more than 1. After successfully establishing the model of rat with rheumatoid arthritis, using the compound of the invention to feed the rat by intragastric administration and scoring arthritis of the rat 2 weeks after administration.

Sequence of JAK2 (O60674 whole entry, species assumed): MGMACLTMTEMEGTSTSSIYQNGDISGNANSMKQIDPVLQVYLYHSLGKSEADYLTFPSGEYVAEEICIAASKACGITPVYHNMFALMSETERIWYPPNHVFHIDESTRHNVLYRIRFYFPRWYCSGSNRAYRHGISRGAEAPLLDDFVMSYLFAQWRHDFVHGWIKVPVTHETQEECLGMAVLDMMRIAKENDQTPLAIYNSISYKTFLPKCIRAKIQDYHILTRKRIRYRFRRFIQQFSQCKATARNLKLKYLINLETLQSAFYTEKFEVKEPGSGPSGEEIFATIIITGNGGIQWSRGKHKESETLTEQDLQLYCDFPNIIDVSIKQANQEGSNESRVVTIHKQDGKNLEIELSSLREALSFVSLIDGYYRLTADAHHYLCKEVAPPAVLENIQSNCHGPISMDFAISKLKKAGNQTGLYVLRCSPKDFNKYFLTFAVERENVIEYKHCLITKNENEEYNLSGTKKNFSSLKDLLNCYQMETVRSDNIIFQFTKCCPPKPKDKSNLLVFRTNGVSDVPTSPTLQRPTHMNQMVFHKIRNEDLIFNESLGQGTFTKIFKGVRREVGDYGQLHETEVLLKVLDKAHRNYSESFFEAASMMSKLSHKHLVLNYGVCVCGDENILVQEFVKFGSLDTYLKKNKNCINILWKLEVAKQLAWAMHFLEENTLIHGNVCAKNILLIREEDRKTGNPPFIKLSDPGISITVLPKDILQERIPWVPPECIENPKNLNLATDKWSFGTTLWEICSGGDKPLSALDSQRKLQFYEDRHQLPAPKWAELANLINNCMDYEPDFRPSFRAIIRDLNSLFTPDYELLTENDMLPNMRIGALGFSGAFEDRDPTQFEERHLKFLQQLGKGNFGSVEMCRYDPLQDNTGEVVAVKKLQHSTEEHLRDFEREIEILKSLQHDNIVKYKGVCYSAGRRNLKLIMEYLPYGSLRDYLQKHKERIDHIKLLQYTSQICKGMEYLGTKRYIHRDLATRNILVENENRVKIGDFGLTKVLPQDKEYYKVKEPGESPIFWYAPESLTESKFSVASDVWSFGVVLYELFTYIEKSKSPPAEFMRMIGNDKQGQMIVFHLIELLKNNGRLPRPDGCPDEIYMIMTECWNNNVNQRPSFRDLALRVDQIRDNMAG
Sequence of JAK1 (P23458 whole entry, species assumed): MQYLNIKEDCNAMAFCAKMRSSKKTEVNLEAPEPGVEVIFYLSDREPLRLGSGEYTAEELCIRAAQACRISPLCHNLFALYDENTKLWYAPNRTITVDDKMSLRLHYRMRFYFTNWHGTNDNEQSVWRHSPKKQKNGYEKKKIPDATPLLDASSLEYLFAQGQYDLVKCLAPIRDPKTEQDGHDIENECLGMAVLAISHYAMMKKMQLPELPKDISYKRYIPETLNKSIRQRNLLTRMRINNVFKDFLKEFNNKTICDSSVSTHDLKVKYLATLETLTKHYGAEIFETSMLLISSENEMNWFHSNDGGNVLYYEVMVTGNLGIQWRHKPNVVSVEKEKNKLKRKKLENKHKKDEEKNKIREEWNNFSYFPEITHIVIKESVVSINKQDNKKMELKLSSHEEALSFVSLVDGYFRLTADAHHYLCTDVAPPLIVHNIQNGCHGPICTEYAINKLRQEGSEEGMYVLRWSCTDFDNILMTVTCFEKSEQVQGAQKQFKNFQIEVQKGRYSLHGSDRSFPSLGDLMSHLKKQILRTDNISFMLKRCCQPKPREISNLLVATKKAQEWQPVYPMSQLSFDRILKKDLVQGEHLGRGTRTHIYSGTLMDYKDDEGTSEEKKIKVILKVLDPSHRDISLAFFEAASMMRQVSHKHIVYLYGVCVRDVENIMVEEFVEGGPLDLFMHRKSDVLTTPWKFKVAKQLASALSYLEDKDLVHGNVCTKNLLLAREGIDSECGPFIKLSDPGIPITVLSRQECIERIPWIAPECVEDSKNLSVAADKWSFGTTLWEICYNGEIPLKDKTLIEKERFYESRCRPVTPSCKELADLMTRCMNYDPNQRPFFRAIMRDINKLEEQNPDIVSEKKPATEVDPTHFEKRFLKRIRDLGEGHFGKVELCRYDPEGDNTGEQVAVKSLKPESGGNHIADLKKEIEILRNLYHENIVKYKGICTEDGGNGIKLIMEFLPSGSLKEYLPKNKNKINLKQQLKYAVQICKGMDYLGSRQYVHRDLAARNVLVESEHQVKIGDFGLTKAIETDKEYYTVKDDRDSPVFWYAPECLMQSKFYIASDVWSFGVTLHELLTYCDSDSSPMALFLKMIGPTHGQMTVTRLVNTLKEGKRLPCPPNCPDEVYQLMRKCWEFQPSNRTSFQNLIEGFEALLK

IC50 [1] [nM] | IC50 [2] [nM] | IC50 [3] [nM] | IC50 [4] [nM] | IC50 [5] [nM] | IC50 [6] [nM] | IC50 [7] [nM] | Structure (SMILES) | Score of arthritis [8]
22 | 7.1 | 200 | 22 | 322 | 8 | 458 | CCCCS(=O)(=O)N1CC(CC#N)(n2cc(-c3ncnc4[nH]ccc34)c3ccccc32)C1 [Example 6, 2-(3-(3-(7H-pyrrole[2,3-d]pyrimidine-4-yl)-1H-indole-1-yl)-1-(butylsulfonyl)azetidine-3-yl)acetonitrile] | 2.3
23 | 2.9 | 262 | 42.9 | 201 | 28.7 | 136 | CCS(=O)(=O)N1CC(CC#N)(n2cc(-c3ncnc4[nH]ccc34)c3cc(OC)ccc32)C1 [Example 64, 2-(1-(ethylsulfonyl)-3-(5-methoxyl-3-(7H-pyrrole[2,3-d]pyrimidine-4-yl)-1H-indole-1-yl)azetidine-3-yl)acetonitrile] | 2.3
0.5 | 0.61 | 28 | 18.5 | 309 | 15.2 | 225 | CCS(=O)(=O)N1CC(CC#N)(n2cc(-c3ncnc4[nH]ccc34)c3ccc(F)cc32)C1 [Example 20, 2-(1-(ethylsulfonyl)-3-(6-fluoro-3-(7H-pyrrole[2,3-d]pyrimidine-4-yl)-1H-indole-1-yl)azetidine-3-yl)acetonitrile] | 1.6
15 | 1.5 | 116 | 45 | 214 | 9.6 | 123 | CN(C)S(=O)(=O)N1CC(CC#N)(n2cc(-c3ncnc4[nH]ccc34)c3ccccc32)C1 [Example 7] | 2.5
